According to patent US20110008469A1, “ANTIMICROBIAL COMPOSITION AND METHODS AND APPARATUS FOR USE THEREOF” (FLORIDA GULF COAST UNIVERSITY, priority 2009, published 2011):

Experiments:
V. fischeri = V. fischeri luminescence assay (killing); type: cell-based, Vibrio fischeri; details: for killing by biocide with varied detergent: 1 mM NH3, 0.5% EtOH; for decrease in luminescence: 2 mM; for killing by biocide with varied alcohol: 1 mM NH3, 0.05 mM CTAB; for effect of ethanol on V. fischeri luminescence: 1% ethanol alone
Method: V. fischeri was grown overnight until the culture reached log phase and were brightly luminescent. Since bacterial luminescence is an ATP driven event, light emission is directly related to the metabolism and energy charge state of the organism. […] Samples at given concentrations were added to V. fischeri in a 24 well plate. A small amount was placed in a 96 well plate, agitated, and the luminescence was read in a TECAN well plate reader. For all figures, the total time period that V. fischeri was exposed to each biocide or component was between five and fifteen minutes. […] The right side bars represent a final pH of 9. Low readings indicate killing. […] The purpose of this component is to fluidize the cell membrane to collapse the pH gradient.

[1] = Effectiveness or lethality of biocide composition with substituted components (test not described)
[2] = 0.05 mM detergent, pH 9.0 (FIG. 6)

Compound: CCCCCCCCCCCCCCCC[N+](C)(C)C.[Br-] [CTAB, Cetyl trimethylammonium bromide]
- killing by biocide with varied detergent (V. fischeri; [2]): some degree of killing
- killing by biocide with varied detergent (V. fischeri; detergent raised to 1 mM, pH 9): kill effectively

Compound: CCCCCCCCCCCCCCCC[N+](C)(C)C.[Cl-] [CTAC, Cetyl trimetylammonium chloride]
- killing by biocide with varied detergent (V. fischeri; [2]): some degree of killing
- killing by biocide with varied detergent (V. fischeri; detergent raised to 1 mM, pH 9): kill effectively

Compound: CCCCCCCCCCCCCCCCN [HDA, Hexadecylamine]
- decrease in luminescence (V. fischeri; pH 7.5): 11%
- decrease in luminescence (V. fischeri; pH 9): 29%
- effect of HDA on V. fischeri luminescence (V. fischeri; HDA alone 0-2 mM, pH 7.5 (FIG. 2)): little to no effect
- effect of HDA on V. fischeri luminescence (V. fischeri; HDA alone, higher concentrations (up to 2 mM), pH 9 (FIG. 2)): slight effect

Compound: CCCCCCCCCCCCOS(=O)(=O)[O-].[Na+] [SDS, Sodium dodecyl sulfate]
- killing by biocide with varied detergent (V. fischeri; [2]): some degree of killing
- killing by biocide with varied detergent (V. fischeri; detergent raised to 1 mM, pH 9): kill effectively

Compound: CCCCCCCCCCCCCC[N+](C)(C)C.[Br-] [TTAB, Tetradecyl trimethyl ammonium bromide]
- killing by biocide with varied detergent (V. fischeri; [2]): some degree of killing
- killing by biocide with varied detergent (V. fischeri; detergent raised to 1 mM, pH 9): kill effectively

Compound: CCCCCCCCCCCCCC[N+](C)(C)C.[Cl-] [TTAC, Tetradecyl trimethyl ammonium chloride]
- killing by biocide with varied detergent (V. fischeri; [2]): some degree of killing
- killing by biocide with varied detergent (V. fischeri; detergent raised to 1 mM, pH 9): kill effectively

Compound: N [ammonia]
- effect of ammonia on V. fischeri luminescence (V. fischeri; ammonia alone, 50 mM or lower, pH 7 or 9, versus pH adjusted H2O control (FIG. 3)): no difference from the control

Compound: Nc1ccccc1 [aniline]
- lethality of biocide with aniline substituted for HAD ([1]; aniline as second hydroxophore component): very lethal

Compound: OCc1ccccc1 [benzyl alcohol]
- killing by biocide with varied alcohol (V. fischeri; 0.5% alcohol, pH 9.0 (FIG. 7)): some degree of killing
- killing by biocide with varied alcohol (V. fischeri; alcohol raised to 1%, pH 9): kill effectively
- effectiveness as component in the composition and method of the invention [1]: effective

Compound: CCO [ethanol]
- killing by biocide with varied alcohol (V. fischeri; 0.5% alcohol, pH 9.0 (FIG. 7)): some degree of killing
- effect of ethanol on V. fischeri luminescence (V. fischeri; final pH 7, 5-15 min exposure (FIG. 1)): damage
- effect of ethanol on V. fischeri luminescence (V. fischeri; final pH 9, 5-15 min exposure (FIG. 1)): damage
- higher luminescence reading at pH 9 than same concentration at pH 7 (V. fischeri; 3% ethanol, pH 9 versus pH 7): 40%
- killing by biocide with varied alcohol (V. fischeri; alcohol raised to 1%, pH 9): kill effectively

Compound: CO [methanol]
- killing by biocide with varied alcohol (V. fischeri; 0.5% alcohol, pH 9.0 (FIG. 7)): some degree of killing
- killing by biocide with varied alcohol (V. fischeri; alcohol raised to 1%, pH 9): kill effectively
- effectiveness as component in the composition and method of the invention [1]: effective

Compound: CCCO [propanol]
- killing by biocide with varied alcohol (V. fischeri; 0.5% alcohol, pH 9.0 (FIG. 7)): some degree of killing
- killing by biocide with varied alcohol (V. fischeri; alcohol raised to 1%, pH 9): kill effectively
- effectiveness as component in the composition and method of the invention [1]: effective

Compound: butanol
- killing by biocide with varied alcohol (V. fischeri; 0.5% alcohol, pH 9.0 (FIG. 7)): some degree of killing
- killing by biocide with varied alcohol (V. fischeri; alcohol raised to 1%, pH 9): kill effectively
- effectiveness as component in the composition and method of the invention [1]: effective
